{"source": "patent US20080096894A1", "about": "“Anti-Bacterial Compounds” (ASTON UNIVERSITY, priority 2005, published 2008)", "experiment_in_all_cases": "MIC, agar dilution, multipoint inoculator", "key": {"[1]": {"test_system": "MRSA", "assay_type": "cell-based, methicillin-resistant Staphylococcus aureus", "settings": "for MRSA MIC range: panel of ten MRSA strains (clinical isolates); for MIC: upper value of MIC reading, in µg/mL", "experimental": "(§1) This activity was measured using a multipoint inoculator method as follows. The MIC for each compound was measured using an agar dilution method (Onda, H., et al., Int. J. Antimicrob. Agents. 18, 263 (2001)) (Mueller Hinton agar) by means of a multipoint inoculator delivering 10^4 colony forming units per spot.\n‘Staph’ refers to the reference strain of S. aureus (NCTC 6571). A tick in the MRSA column refers to a positive zone against MRSA strain 96-7474, and the MIC range (in μg/ml) which follows is that found against a panel of ten MRSA strains. Where MIC values are given for MRSA, these are stated as a range of values, as testing was carried out on a panel of clinical isolates."}, "[2]": {"test_system": "S. aureus", "assay_type": "cell-based, Staphylococcus aureus", "settings": "upper value of MIC reading", "experimental": "as §1"}, "[3]": {"test_system": "E. faecium", "assay_type": "cell-based, Enterococcus faecium", "settings": "upper value of MIC reading", "experimental": "as §1"}, "[4]": {"test_system": "E. faecalis", "assay_type": "cell-based", "settings": "upper value of MIC reading", "experimental": "as §1"}, "[5]": {"test_system": "S. epidemisis", "assay_type": "cell-based, Staphylococcus epidermidis", "settings": "S. epidemisis Isolate 1; upper value of MIC reading", "experimental": "as §1"}}, "data": [{"smiles": "Cc1ccccc1C=NN=C(N)c1ccccn1", "note": "[Compound 2PYah]", "values": [{"measurement": "MRSA MIC range", "setting": "[1]", "result": "128 to 256", "unit": "µg/mL"}]}, {"smiles": "CCc1ccccc1C=NN=C(N)c1ccccn1", "note": "[Compound 2PYai]", "values": [{"measurement": "MRSA MIC range", "setting": "[1]", "result": "128 to 256", "unit": "µg/mL"}]}, {"smiles": "Cc1cccc(C=NN=C(N)c2ccccn2)c1", "note": "[Compound 2PYaj]", "values": [{"measurement": "MRSA MIC range", "setting": "[1]", "result": "128 to 256", "unit": "µg/mL"}]}, {"smiles": "NC(=NN=Cc1cc(Br)cc([N+](=O)[O-])c1O)c1ccccn1", "note": "[Compound 2PYcl]", "values": [{"measurement": "MIC", "setting": "[1]; MRSA Isolate 1", "result": 64}, {"measurement": "MIC", "setting": "[1]; MRSA Isolate 2", "result": 64}, {"measurement": "MIC", "setting": "[1]; MRSA Isolate 3", "result": 64}, {"measurement": "MIC", "setting": "[1]; MRSA Isolate 4", "result": 32}, {"measurement": "MIC", "setting": "[1]; MRSA Isolate 5", "result": 32}, {"measurement": "MIC", "setting": "[1]; MRSA Isolate 6", "result": 64}, {"measurement": "MIC", "setting": "[1]; MRSA Isolate 7", "result": 64}, {"measurement": "MIC", "setting": "[1]; MRSA Isolate 8", "result": 64}, {"measurement": "MIC", "setting": "[1]; MRSA Isolate 9", "result": 64}, {"measurement": "MIC", "setting": "[1]; MRSA Isolate 10", "result": 64}, {"measurement": "MIC", "setting": "[2]; S. aureus Cowan 1", "result": 64, "unit": "µg/mL"}, {"measurement": "MIC", "setting": "[2]; S. aureus NCTC 6571", "result": 32, "unit": "µg/mL"}, {"measurement": "MIC", "setting": "[2]; S. aureus NCTC 10788", "result": 32, "unit": "µg/mL"}, {"measurement": "MIC", "setting": "[3]; E. faecium ACTCC 10541", "result": 128, "unit": "µg/mL"}, {"measurement": "MIC", "setting": "[3]; E. faecium NCTC 7171", "result": 256, "unit": "µg/mL"}, {"measurement": "MIC", "setting": "[4]; E. faecalis EBH1", "result": 256, "unit": "µg/mL"}, {"measurement": "MIC", "setting": "[4]; E. faecalis NCTC 5957", "result": 256, "unit": "µg/mL"}]}, {"smiles": "NC(=NN=Cc1c(O)ccc2ccccc12)c1ccccn1", "note": "[Compound 2PYdb]", "values": [{"measurement": "MIC", "setting": "[1]; MRSA Isolate 3", "result": ">256"}, {"measurement": "MRSA MIC range", "setting": "[1]", "result": "> 256", "unit": "µg/mL"}, {"measurement": "MIC", "setting": "[2]; S. aureus NCTC 6571", "result": "> 256", "unit": "µg/mL"}]}, {"smiles": "NC(=NN=Cc1cccc(Cl)c1)c1ccccn1", "note": "[Compound 2PYdg]", "values": [{"measurement": "MRSA MIC range", "setting": "[1]", "result": "64 to 128", "unit": "µg/mL"}]}, {"smiles": "CN(C)c1ccc(C=NN=C(N)c2ccccn2)cc1", "note": "[Compound 2PYdq]", "values": [{"measurement": "MRSA MIC range", "setting": "[1]", "result": "128 to 256", "unit": "µg/mL"}]}, {"smiles": "NC(=NN=Cc1ccc(O)c(O)c1O)c1ccncc1", "note": "[Compound 4PYcb]", "values": [{"measurement": "MRSA MIC range", "setting": "[1]", "result": "30 to 40", "unit": "µg/mL"}]}, {"smiles": "NC(=NN=Cc1cc(O)c(O)cc1O)c1ccncc1", "note": "[Compound 4PYcc]", "values": [{"measurement": "MRSA MIC range", "setting": "[1]", "result": "20 to 30", "unit": "µg/mL"}]}, {"smiles": "NC(=NN=Cc1cc([N+](=O)[O-])ccc1O)c1ccncc1", "note": "[Compound 4PYcj]", "values": [{"measurement": "MRSA MIC range", "setting": "[1]", "result": "20 to 30", "unit": "µg/mL"}]}, {"smiles": "NC(=NN=Cc1cc(I)cc(I)c1O)c1ccncc1", "note": "[Compound 4PYco]", "values": [{"measurement": "MRSA MIC range", "setting": "[1]", "result": "10 to 20", "unit": "µg/mL"}]}, {"smiles": "CC(C)(C)c1cc(C=NN=C(N)c2ccncc2)cc(C(C)(C)C)c1O", "note": "[Compound 4PYcr]", "values": [{"measurement": "MIC", "setting": "[1]; MRSA Isolate 3", "result": ">256"}, {"measurement": "MRSA MIC range", "setting": "[1]", "result": "> 256", "unit": "µg/mL"}, {"measurement": "MIC", "setting": "[2]; S. aureus NCTC 6571", "result": "> 256", "unit": "µg/mL"}]}, {"smiles": "COc1ccc(C=NNc2ccccn2)c(O)c1", "note": "[HDcf]", "values": [{"measurement": "MRSA MIC range", "setting": "[1]", "result": "20 to 30", "unit": "µg/mL"}]}, {"smiles": "NC(=NN=Cc1cc([N+](=O)[O-])ccc1O)c1cnccn1", "note": "[PZcj]", "values": [{"measurement": "MIC", "setting": "[1]; MRSA Isolate 1", "result": 8}, {"measurement": "MIC", "setting": "[1]; MRSA Isolate 2", "result": 8}, {"measurement": "MIC", "setting": "[1]; MRSA Isolate 3", "result": 4}, {"measurement": "MIC", "setting": "[1]; MRSA Isolate 4", "result": 4}, {"measurement": "MIC", "setting": "[1]; MRSA Isolate 5", "result": 16}, {"measurement": "MIC", "setting": "[1]; MRSA Isolate 6", "result": 16}, {"measurement": "MIC", "setting": "[1]; MRSA Isolate 7", "result": 16}, {"measurement": "MIC", "setting": "[1]; MRSA Isolate 8", "result": 16}, {"measurement": "MIC", "setting": "[1]; MRSA Isolate 9", "result": 16}, {"measurement": "MIC", "setting": "[1]; MRSA Isolate 10", "result": 16}, {"measurement": "MRSA MIC range", "setting": "[1]", "result": "4 to 16", "unit": "µg/mL"}, {"measurement": "MIC", "setting": "[2]; S. aureus Cowan 1", "result": 256, "unit": "µg/mL"}, {"measurement": "MIC", "setting": "[2]; S. aureus NCTC 6571", "result": 16, "unit": "µg/mL"}, {"measurement": "MIC", "setting": "[2]; S. aureus NCTC 10788", "result": 16, "unit": "µg/mL"}, {"measurement": "MIC", "setting": "[4]; E. faecalis Isolate 3", "result": 256, "unit": "µg/mL"}, {"measurement": "MIC", "setting": "[5]", "result": 256, "unit": "µg/mL"}]}, {"smiles": "CC(C)(C)[Si](C)(C)Oc1ccccc1/C=N/N=C(\\N)c1cnccn1", "note": "[PZeg]", "values": [{"measurement": "MRSA MIC range", "setting": "[1]", "result": "> 256", "unit": "µg/mL"}]}, {"smiles": "O=Cc1cc(Br)cc([N+](=O)[O-])c1O", "note": "[cl]", "values": [{"measurement": "MIC", "setting": "[1]; MRSA Isolate 1", "result": 16}, {"measurement": "MIC", "setting": "[1]; MRSA Isolate 2", "result": 16}, {"measurement": "MIC", "setting": "[1]; MRSA Isolate 3", "result": 32}, {"measurement": "MIC", "setting": "[1]; MRSA Isolate 4", "result": 16}, {"measurement": "MIC", "setting": "[1]; MRSA Isolate 5", "result": 16}, {"measurement": "MIC", "setting": "[1]; MRSA Isolate 6", "result": 32}, {"measurement": "MIC", "setting": "[1]; MRSA Isolate 7", "result": 32}, {"measurement": "MIC", "setting": "[1]; MRSA Isolate 8", "result": 32}, {"measurement": "MIC", "setting": "[1]; MRSA Isolate 9", "result": 32}, {"measurement": "MIC", "setting": "[2]; S. aureus Cowan 1", "result": 32, "unit": "µg/mL"}, {"measurement": "MIC", "setting": "[2]; S. aureus NCTC 6571", "result": 16, "unit": "µg/mL"}, {"measurement": "MIC", "setting": "[2]; S. aureus NCTC 10788", "result": 16, "unit": "µg/mL"}]}]}
